Test results reported in ChEMBL document CHEMBL4665709, “Rational Avoidance of Protease Cleavage Sites and Symmetrical End-Tagging Significantly Enhances the Stability and Therapeutic Potential of Antimicrobial Peptides” (J Med Chem, 2020).
Values after ≈ are worked out from the molar mass of the structure shown. Active and inactive are the calls of the source. No cut-off for these calls is given here. Where a SMILES comes first, the peptide text is derived from it.

Key:
[1] = system: Staphylococcus aureus; test: Displacement of BODIPY-TR-cadaverine from Staphylococcus aureus LTA after 4 hrs by fluorescence assay
[2] = system: Cell membrane; test: Induction of membrane in permeabilization Staphylococcus aureus ATCC 29213 after 1 hr by FITC/PI fluorescence staining-based confocal microscopy analysis
[3] = system: Escherichia coli; test: Antibacterial activity against Escherichia coli ATCC 25922 infected in C57BL/6 mouse assessed as reduction in IL-6 level in serum at 10 mg/kg, ip measured after 11 hrs by ELISA; assay type: functional, organism-based
[4] = system: Cell membrane; test: Induction of cytoplasmic membrane depolarization in Escherichia coli ATCC 25922 at 0.5 to 2 times MIC up to 1000 secs by DiSC3-5 dye-based fluorescence assay; assay type: subcellular; details: time sec <=1000
[5] = system: Cell membrane; test: Induction of morpholoical changes in membrane of Staphylococcus aureus ATCC 29213 assessed as breakage in bacterial membrane at 1 times MIC after 1 hr by scanning electron microscopy; assay type: subcellular
[6] = system: Escherichia coli; test: Antibacterial activity against Escherichia coli ATCC 25922 after 18 to 24 hrs in presence of 4.5 mM K+ by CLSI-based broth microdilution method; assay type: functional; details: time hrs 18-24
[7] = system: Cell membrane; test: Induction of structural changes in membrane of Staphylococcus aureus ATCC 29213 assessed as cytoplasmic leakage at 1 times MIC after 1 hr by transmission electron microscopy
[8] = Stability of compound assessed as chymotrypsin (unknown origin)-mediated drug degradation after 8 hrs by SDS-PAGE analysis; assay type: ADME; details: human
[9] = system: Escherichia coli; test: Antibacterial activity against Escherichia coli ATCC 25922 infected in C57BL/6 mouse assessed as reduction in bacterial load in lung at 10 mg/kg, ip measured after 11 hrs (reference value: 6.48 log CFU/g); assay type: functional
[10] = Therapeutic index, ratio of MHC for human RBC to geometric mean of peptide MIC for Streptococcus agalactiae H92; assay type: toxicity; details: human red blood cells (RBC), read-out: TI
[11] = system: RAW264.7; test: Antiinflammatory activity in mouse RAW264.7 cells assessed as inhibition of LPS-induced IL-6 production after 24 hrs by ELISA; assay type: functional, cell-based
[12] = system: Cell membrane; test: Disruption of membrane integrity in Escherichia coli ATCC 25922 assessed as induction of membrane rupture at 0.5 to 2 times MIC after 1 hr by SYTO-9/PI-staining based fluorescence microscopy
[13] = Hemolytic activity in human RBC assessed as hemolysis at 1 to 128 uM relative to control; assay type: ADME, cell-based, Erythrocyte; details: human red blood cells (RBC), dose 1-128 µM, read-out: Activity
[14] = Toxicity in C57BL/6 mouse assessed as change in body weigh at 10 mg/kg, ip measured for 5 days; assay type: organism-based; details: in vivo, 120 h, time 5 day
[15] = Therapeutic index, ratio of MHC for human RBC to geometric mean of peptide MIC for Salmonella pullorum 7913; assay type: toxicity; details: human red blood cells (RBC), read-out: TI
[16] = system: Escherichia coli; test: Antibacterial activity against Escherichia coli UB1005 after 18 to 24 hrs by CLSI-based broth microdilution method; assay type: functional; details: time hrs 18-24
[17] = system: Staphylococcus aureus; test: Antibacterial activity against Staphylococcus aureus ATCC 29213 after 18 to 24 hrs in presence of 6 uM NH4+ by CLSI-based broth microdilution method; assay type: functional; details: time hrs 18-24
[18] = system: Staphylococcus aureus; test: Antibacterial activity against Staphylococcus aureus ATCC 29213 after 18 to 24 hrs in presence of 25% human serum by CLSI-based broth microdilution method; assay type: functional; details: time hrs 18-24
[19] = system: Cell membrane; test: Disruption of membrane integrity in Staphylococcus aureus ATCC 29213 assessed as induction of membrane rupture at 2 times MIC after 1 hr by PI-staining based flow cytometry analysis
[20] = Therapeutic index, ratio of MHC for human RBC to geometric mean of peptide MIC for Escherichia coli UB1005; assay type: toxicity; details: human red blood cells (RBC), read-out: TI
[21] = system: Lipopolysaccharide (LPS); test: Displacement of BODIPY-TR-cadaverine from Escherichia coli O111:B4 LPS after 4 hrs by fluorescence assay
[22] = system: RAW264.7; test: Antiinflammatory activity in mouse RAW264.7 cells assessed as inhibition of LPS-induced TNF-alpha production after 24 hrs by ELISA; assay type: functional, cell-based
[23] = target: Trypsin (Homo sapiens, UniProt P07477+P07478+P35030); test: Stability of compound assessed as trypsin (unknown origin)-mediated drug degradation after 8 hrs by SDS-PAGE analysis; assay type: ADME, protein assay
[24] = system: Cell membrane; test: Induction of morpholoical changes in membrane of Staphylococcus aureus ATCC 29213 assessed as corrugation in bacterial membrane at 1 times MIC after 1 hr by scanning electron microscopy; assay type: subcellular
[25] = system: Cell membrane; test: Induction of morpholoical changes in membrane of Escherichia coli ATCC 25922 assessed as corrugation in bacterial membrane at 1 times MIC after 1 hr by scanning electron microscopy
[26] = Stability of compound assessed as pepsin (unknown origin)-mediated drug degradation after 8 hrs by SDS-PAGE analysis; assay type: ADME; details: human
[27] = system: Escherichia coli; test: Antibacterial activity against Escherichia coli 25922 measured over 40 passages; assay type: functional, organism-based; details: ATCC 25922
[28] = system: RAW264.7; test: Antiinflammatory activity in mouse RAW264.7 cells assessed as inhibition of LPS-induced IL-1beta production after 24 hrs by ELISA; assay type: functional, cell-based
[29] = system: Erythrocyte; test: Hemolytic activity in human RBC assessed as hemolysis; assay type: ADME, cell-based
[30] = system: Escherichia coli; test: Antibacterial activity against Escherichia coli ATCC 25922 infected in C57BL/6 mouse assessed as reduction in bacterial load in kidney at 10 mg/kg, ip measured after 11 hrs (reference value: 7.59 log CFU/g); assay type: functional
[31] = system: Escherichia coli; test: Antibacterial activity against Escherichia coli ATCC 25922 infected in C57BL/6 mouse assessed as reduction in lesion in spleen at 10 mg/kg, ip measured after 11 hrs by hematoxylin and eosin staining based assay; assay type: functional, organism-based
[32] = Toxicity in C57BL/6 mouse assessed as effect on creatinine level at 20 mg/kg, ip measured after 5 days; assay type: organism-based; details: in vivo, 120 h, time 5 day
[33] = system: Escherichia coli; test: Antibacterial activity against Escherichia coli ATCC 25922 after 18 to 24 hrs in presence of 150 mM Na+ by CLSI-based broth microdilution method; assay type: functional; details: time hrs 18-24
[34] = system: Escherichia coli; test: Antibacterial activity against Escherichia coli ATCC 25922 measured after 18 to 24 hrs in presence of trypsin by CLSI-based broth microdilution method; assay type: functional, organism-based; details: time hrs 18-24
[35] = Toxicity in C57BL/6 mouse assessed as effect on total bilirubin level at 10 mg/kg, ip measured after 5 days; assay type: organism-based; details: in vivo, 120 h, time 5 day
[36] = Toxicity in C57BL/6 mouse assessed as effect on total bilirubin level at 20 mg/kg, ip measured after 5 days; assay type: organism-based; details: in vivo, 120 h, time 5 day
[37] = Therapeutic index, ratio of MHC for human RBC to geometric mean of peptide MIC for Escherichia coli ATCC 25922; assay type: toxicity; details: human red blood cells (RBC), read-out: TI
[38] = system: Staphylococcus aureus; test: Antibacterial activity against Staphylococcus aureus ATCC 29213 after 18 to 24 hrs in presence of 8 uM Zn2+ by CLSI-based broth microdilution method; assay type: functional; details: time hrs 18-24
[39] = system: Cell membrane; test: Induction of structural changes in membrane of Escherichia coli ATCC 25922 assessed as sparsity at 1 times MIC after 1 hr by transmission electron microscopy; assay type: subcellular

CC[C@H](C)[C@H](N)C(=O)N[C@H](C(=O)N[C@H](C(=O)N[C@@H](CS)C(=O)N[C@@H](CCCNC(=N)N)C(=O)N[C@@H](CCCCN)C(=O)N1CCC[C@H]1C(=O)N[C@H](C(=O)N[C@H](C(=O)N[C@@H](CS)C(=O)N[C@@H](CCCNC(=N)N)C(=O)N[C@@H](CCCCN)C(=O)N1CCC[C@H]1C(=O)N[C@H](C(=O)N[C@H](C(=O)N[C@@H](CS)C(=O)N[C@@H](CCCNC(=N)N)C(=O)N[C@@H](CCCCN)C(=O)N1CCC[C@H]1C(=O)N[C@H](C(=O)N[C@H](C(=O)N[C@@H](CS)C(=O)N[C@@H](CCCNC(=N)N)C(=O)N[C@@H](CCCCN)C(=O)N1CCC[C@H]1C(=O)N[C@H](C(=O)N[C@H](C(=O)N[C@H](C(N)=O)[C@@H](C)CC)[C@@H](C)CC)[C@@H](C)CC)[C@@H](C)CC)[C@@H](C)CC)[C@@H](C)CC)[C@@H](C)CC)[C@@H](C)CC)[C@@H](C)CC)[C@@H](C)CC)[C@@H](C)CC (H-IIICRKPIICRKPIICRKPIICRKPIII-NH2)
Activity [1]: Dose-dependent effect
Activity [2]: Active
Activity [3]: Active
Activity [4]: Active
Activity [5]: Active
MIC [6]: 2 µM
Activity [7]: Active
Stabilty [8]: Stable
Activity [9]: 5.58 log10CFU/g
selectivity ratio [10]: 28.5
Activity [11]: Dose-dependent effect
Activity [12]: Active
hemolysis at up to 128 µM [13]: < 5%
Activity [14]: Non-Toxic
selectivity ratio [15]: 57
MIC [16]: 2 µM (≈ 6.63 µg/mL)
MIC [17]: 8 µM
MIC [18]: 8 µM
Activity [19]: > 90%
selectivity ratio [20]: 57
Activity [21]: Dose-dependent effect
Activity [22]: Dose-dependent effect
Stabilty [23]: Stable
Activity [24]: Active
Activity [25]: Active
Stabilty [26]: Stable
Activity [27]: Active
Activity [28]: Dose-dependent effect
MHC [29]: > 128 µM
Activity [30]: 5.38 log10CFU/g
Activity [31]: Active
Activity [32]: Non-Toxic
MIC [33]: 4 µM
Activity [34]: Active
Activity [35]: Non-Toxic
Activity [36]: Non-Toxic
selectivity ratio [37]: 57
MIC [38]: 8 µM
Activity [39]: Active
